This note sets out measurements from article PMC8584989 (International Journal of Molecular Sciences, 2021).

Molecules are shown by their SMILES.

For one assay, the system named is MDCKII-parent cells. As to the kind of experiment: MTT proliferation / drug combination assay. The class given is cell-based, canine. Particulars: Canis lupus familiaris, read-out: IC50 (IC50-shift analysis). On the procedure: (§1) These colorimetric assays were used in various studies presented in this paper (prior induction studies, MDR reversal experiments and comparative viability assays) and were performed as reported previously. […] In MTT experiments, cells were seeded on a 96-well culture plate at densities (in number of cells/well) of 1.3 × 10^4 for MDCKII-par, MDCKII-ABCB1 and MDCKII-ABCG2; 1.2 × 10^4 for A431-par, A431-ABCB1, A431-ABCG2 and A431-ABCC1; 1.2 × 10^4 for NCI-H1299; 1.0 × 10^4 for A459; 2.0 × 10^4 for Caco-2; 5.0 × 10^4 for LS174T; and 1.0 × 10^4 for primary NSCLC explants. On the other hand, for XTT cells were seeded with densities 2.0 × 10^4 for HL60-par, HL60-ABCB1, HL60-ABCG2 and HL60-ABCC1 cells/well on 96-well plates. […] Following 48 h incubation with drugs, Opti-MEM solutions of MTT or XTT (1 mg/mL) with phenazine methosulfate solution (7.50 μg/mL; only for XTT) was added and the cells were incubated for 1 h with the exception of HL60s that were incubated for 5 h.
(§2) Based on the computed CI values, the effects of drug combinations were classified as synergistic (CI < 0.9), additive (0.9 < CI < 1.1) or antagonistic (CI > 1.1).

The next assay deals with A431-par cells. As to the kind of experiment: MTT proliferation / drug combination assay. Particulars: read-out: IC50 (IC50-shift analysis). The class given is cell-based. The protocol:
as §1, §2

In another assay the test system is HL60-par cells. As to the kind of experiment: XTT proliferation / drug combination assay. The class given is cell-based. Particulars: read-out: IC50 (IC50-shift analysis). The protocol: as §1, §2
A further assay deals with MDCKII-ABCB1 cells. Nature of the assay: MTT proliferation / drug combination assay. Particulars: Canis lupus familiaris, read-out: IC50 (IC50-shift analysis).
Another assay relates to A431-ABCB1 cells. Nature of the assay: MTT proliferation / drug combination assay. Particulars: read-out: IC50 (IC50-shift analysis).
A further assay concerns HL60-ABCB1 cells. As to the kind of experiment: XTT proliferation / drug combination assay. The following applies: read-out: IC50 (IC50-shift analysis).
Another assay concerns A431-ABCG2 cells. As to the kind of experiment: MTT proliferation / drug combination assay. Particulars: read-out: IC50 (IC50-shift analysis).
In a further assay the test system is HL60-ABCG2 cells. Nature of the assay: XTT proliferation / drug combination assay. The following applies: read-out: IC50 (IC50-shift analysis).

Regarding `COc1cccc2c1C(=O)c1c(O)c3c(c(O)c1C2=O)C[C@@](O)(C(C)=O)C[C@@H]3O[C@H]1C[C@H](N)[C@H](O)[C@H](C)O1` [daunorubicin], the IC50 was 0.947 µM in the assay on MDCKII-parent cells; 1.99 µM in the assay with A431-par cells; 0.0531 µM with HL60-par cells; 11.9 µM in the assay with MDCKII-ABCB1 cells; 21.7 µM in the assay with A431-ABCB1 cells; 2.14 µM with HL60-ABCB1 cells.

For `O=C1c2c(O)ccc(O)c2C(=O)c2c(NCCNCCO)ccc(NCCNCCO)c21` [mitoxantrone], the IC50 amounted to 2.1 µM with A431-par cells, 0.0305 µM in the assay with HL60-par cells, 56.5 µM with A431-ABCG2 cells and 0.669 µM with HL60-ABCG2 cells.
